We go through 39 compounds from ChEMBL document CHEMBL3039007, “Structure-based identification of OATP1B1/3 inhibitors” (Mol Pharmacol, 2013).

The target of data set [1] is T1, Solute carrier organic anion transporter family member 1B1 (Homo sapiens, UniProt Q9Y6L6).
T1 sequence (Q9Y6L6 whole entry): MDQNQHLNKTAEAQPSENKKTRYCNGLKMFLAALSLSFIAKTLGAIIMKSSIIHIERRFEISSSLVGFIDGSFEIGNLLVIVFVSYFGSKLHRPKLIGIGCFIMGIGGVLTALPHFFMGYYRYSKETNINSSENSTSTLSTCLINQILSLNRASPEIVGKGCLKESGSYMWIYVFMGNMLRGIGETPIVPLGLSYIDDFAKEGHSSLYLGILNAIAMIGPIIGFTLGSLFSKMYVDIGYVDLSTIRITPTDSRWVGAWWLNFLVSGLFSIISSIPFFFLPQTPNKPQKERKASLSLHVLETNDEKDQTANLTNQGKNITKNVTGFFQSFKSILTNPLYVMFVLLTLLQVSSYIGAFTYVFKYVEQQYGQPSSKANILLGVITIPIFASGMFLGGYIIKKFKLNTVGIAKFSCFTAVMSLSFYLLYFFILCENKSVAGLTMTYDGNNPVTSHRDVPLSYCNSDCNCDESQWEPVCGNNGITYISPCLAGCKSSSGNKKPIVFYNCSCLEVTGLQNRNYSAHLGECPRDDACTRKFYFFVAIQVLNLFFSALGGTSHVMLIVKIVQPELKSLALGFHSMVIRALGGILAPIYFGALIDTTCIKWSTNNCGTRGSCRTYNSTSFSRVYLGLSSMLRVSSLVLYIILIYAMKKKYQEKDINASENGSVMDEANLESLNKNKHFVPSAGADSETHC
Conditions: chinese hamster, cho, 10 µM.

The target of data set [2] is T2, Solute carrier organic anion transporter family member 1B3 (Homo sapiens, UniProt Q9NPD5).
T2 sequence (Q9NPD5 whole entry): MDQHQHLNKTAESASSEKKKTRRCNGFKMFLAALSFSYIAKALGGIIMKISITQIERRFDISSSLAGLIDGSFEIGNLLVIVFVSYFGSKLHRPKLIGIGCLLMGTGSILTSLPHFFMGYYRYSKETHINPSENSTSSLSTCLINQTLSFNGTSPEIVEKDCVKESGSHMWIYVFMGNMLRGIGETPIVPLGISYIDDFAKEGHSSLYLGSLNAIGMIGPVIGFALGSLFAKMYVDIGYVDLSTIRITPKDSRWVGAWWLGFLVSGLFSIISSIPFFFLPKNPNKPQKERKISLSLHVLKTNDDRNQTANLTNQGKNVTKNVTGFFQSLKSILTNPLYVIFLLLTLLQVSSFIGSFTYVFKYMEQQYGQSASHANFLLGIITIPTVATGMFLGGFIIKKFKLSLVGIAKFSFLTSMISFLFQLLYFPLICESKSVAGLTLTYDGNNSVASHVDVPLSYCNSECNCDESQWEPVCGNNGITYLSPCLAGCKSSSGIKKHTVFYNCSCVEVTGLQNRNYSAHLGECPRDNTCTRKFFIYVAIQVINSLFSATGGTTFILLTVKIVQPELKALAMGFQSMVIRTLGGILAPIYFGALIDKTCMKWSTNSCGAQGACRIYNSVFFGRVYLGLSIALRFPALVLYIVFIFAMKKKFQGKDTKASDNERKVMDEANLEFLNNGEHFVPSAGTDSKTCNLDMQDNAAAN
The following applies: chinese hamster, cho, 10 µM.

For orientation: residual activity means the signal under treatment as a percentage of the control signal. As to `CC[C@@H](C)C(=O)O[C@H]1[C@H](O)[C@H]2[C@@H](CN3C[C@@H](C)CC[C@H]3[C@@]2(C)O)[C@@H]2C[C@]34O[C@]5(O)[C@@H](OC(=O)[C@](C)(O)[C@@H](C)O)CC[C@@]3(C)[C@@H]5[C@@H](OC(C)=O)[C@@H](OC(C)=O)[C@H]4[C@@]21O` [PROTOVERATRINE B], the results for the residual activity in data set [1] and in data set [2] were 114.4% and 125.5%, respectively.
The matching figures for `CC1(C)S[C@@H]2[C@H](N3C(=O)[C@@H](c4ccccc4)NC3(C)C)C(=O)N2[C@H]1C(=O)[O-].[K+]` [HETACILLIN POTASSIUM]: 81.9% and 89.09%.
Turning to `CCCCCCCCCCC[C@@H](C[C@@H]1OC(=O)[C@H]1CCCCCC)OC(=O)[C@H](CC(C)C)NC=O` [ORLISTAT], the residual activity is 85.27% in data set [1] and 84.62% in data set [2].
Take `CC[n+]1c(-c2ccccc2)c2cc(N)ccc2c2ccc(N)cc21.[Br-]` [HOMIDIUM BROMIDE]: the residual activity in data set [1] was 98.94%; in data set [2], 100.7%.
In the case of `C#C[C@]1(O)CC[C@H]2[C@@H]3CCC4=CC(=O)CC[C@@H]4[C@H]3CC[C@@]21C` [NORETHINDRONE], the residual activity was 91.27% in data set [1] and 109.8% in data set [2].
In the case of `CN1CC(=O)NC1=N` [CREATININE], the residual activity in data set [1] turned out to be 105.7%; in data set [2], 93.64%.
For `Cl.Cl.NCCSSCCN` [CYSTAMINE DIHYDROCHLORIDE], in that order: 111.3% and 89.2%.
For `Cc1c(C(N)=O)cc([N+](=O)[O-])cc1[N+](=O)[O-]` [DINITOLMIDE], in that order: 98.02% and 106.4%.
The matching figures for `O=C(O)CCCN1C(=O)c2cccc3cccc(c23)C1=O`: 113.1% and 112.7%.
`COc1c(OC)c2occc2c2oc(=O)ccc12` [PIMPINELLIN]: the residual activity in data set [1] came out at 104.9%; in data set [2], 103.2%.
The matching figures for `CC1(C)C=Cc2cc3ccc(=O)oc3cc2O1` [XANTHYLETIN]: 75.53% and 85.95%.
For `CC(C)[C@@H]1CC[C@@H](C)CC1=O` [MENTHONE], in that order: 96.98% and 100.2%.
Consider `NC/C=C/C(=O)O` [t-4-AMINOCROTONIC ACID (TACA)], for which the residual activity in data set [1] amounted to 119.6%; in data set [2] it was 94.21%.
For `COc1c2c(cc3c1OCO3)[C@]13C=C[C@H](OC)C[C@H]1N(C2)C[C@@H]3O` [AMBELLINE], the figures for the residual activity in data set [1] and in data set [2] were 91.95% and 88.47%, respectively.
The matching figures for `COc1cnc(NS(=O)(=O)c2ccc(N)cc2)nc1`: 233.5% and 112.9%.
For `CC(=O)c1ccc[nH]1` [2-ACETYLPYRROLE], in that order: 111.7% and 98.29%.
Consider `C[C@@H]1C[C@H]2[C@@H]3C[C@H](F)C4=CC(=O)C=C[C@]4(C)[C@@]3(F)[C@@H](O)C[C@]2(C)[C@@]1(O)C(=O)CO` [FLUMETHASONE], for which the residual activity in data set [1] is recorded as 84.89%; in data set [2], 135.8%.
Turning to `CC(=O)O[C@H]1C[C@@H](OC(C)=O)C(C)(C)[C@@H]2CC(=O)[C@]3(C)[C@H](CC[C@@]4(C)[C@H](c5ccoc5)OC(=O)[C@H]5O[C@]543)[C@@]12C`, the residual activity in data set [1] amounted to 55.58%; in data set [2], 72.19%.
For the compound `CN[C@H](CC(=O)O)C(=O)O` [N-METHYL-D-ASPARTIC ACID (NMDA)], the residual activity in data set [1] worked out at 101.6%; in data set [2] it was 98.22%.
For `COP(N)(=O)SC` (stereo not drawn) [METHAMIDOPHOS], in that order: 96.41% and 106%.
The matching figures for `C=CC(C1=CC(=O)C(OC)=CC1=O)c1ccc(O)cc1` (stereo not drawn) [DALBERGIONE, 4-METHOXY-4'-HYDROXY-]: 114.1% and 246.6%.
For `C/C=C(\C)C(=O)O[C@@H]1[C@@H]2C=C3[C@@H]4CC(=O)O[C@@H](c5ccoc5)[C@]4(C)CC[C@@H]3[C@@](C)(C2=O)[C@@H]([C@@H](O)C(=O)OC)C1(C)C` [SWIETENINE], in that order: 14.03% and 69.9%.
Regarding `CC(=O)OCC(CCn1cnc2cnc(N)nc21)COC(C)=O` [FAMCICLOVIR], the results for the residual activity in data set [1] and in data set [2] were 68.22% and 68.05%, respectively.
In the case of `CO[C@H]1C[C@H](O[C@@H]2/C(C)=C/C[C@@H]3C[C@@H](C[C@]4(CC[C@H](C)[C@@H](C5CCCCC5)O4)O3)OC(=O)[C@@H]3C=C(C)/C(=N/O)[C@H]4OC/C(=C\C=C\[C@@H]2C)[C@]43O)O[C@@H](C)[C@@H]1O` [SELAMECTIN], the residual activity in data set [1] is listed as 98.02%; in data set [2] it was 93.37%.
For `COC(=O)c1c(Cl)c(Cl)c(C(=O)OC)c(Cl)c1Cl` [DACTHAL], the residual activity in data set [1] is given as 103.5%; in data set [2] it was 106.6%.
As for `O=S1OCC2C(CO1)C1(Cl)C(Cl)=C(Cl)C2(Cl)C1(Cl)Cl` (stereo not drawn) [ENDOSULFAN], the residual activity is 111.6% in data set [1] and 117.8% in data set [2].
As for `C[C@@H]1CC[C@@]2(OC1)O[C@H]1C[C@H]3[C@@H]4CC[C@@]5(C)C[C@@H](O)CC[C@]5(C)[C@H]4CC(=O)[C@]3(C)[C@H]1[C@@H]2C` [HECOGENIN], the residual activity in data set [1] amounted to 41.82%; in data set [2] it was 105.1%.
The matching figures for `COc1cc(O)c(C(C)=O)c(OC)c1` [XANTHOXYLIN]: 128.7% and 104.3%.
For `Cn1c(=O)[nH]c2ncn(C)c2c1=O` [PARAXANTHINE], in that order: 94.78% and 88.58%.
As to `CC[C@H](CC[C@@H](C)[C@H]1CC[C@H]2[C@@H]3CC[C@H]4C[C@@H](O)CC[C@]4(C)[C@H]3CC[C@]12C)C(C)C` [STIGMASTANOL], the residual activity in data set [1] is on record as 77.21%; in data set [2] it was 102.9%.
As for `C=CCc1ccc(O)c(OC)c1` [EUGENOL], the residual activity in data set [1] was 106%; in data set [2], 104.3%.
As for `ClC(Cl)=C(c1ccc(Cl)cc1)c1ccc(Cl)cc1` [DICHLORODIPHENYLDICHLOROETHYLENE], the results for the residual activity in data set [1] and in data set [2] were 94.96% and 103.2%, respectively.
The matching figures for `COC(=O)c1c(C)cc(O)cc1O` [METHYL ORSELLINATE]: 90.83% and 98.38%.
For `O=C(O)c1cccnc1` [NIACIN], the results for the residual activity in data set [1] and in data set [2] were 124.4% and 89.89%, respectively.
Regarding `CC(C)=CCc1c2c(c(O)c3c(=O)c(O)c(-c4ccccc4)oc13)C=CC(C)(C)O2` [SERICETIN], the residual activity in data set [1] came out at 89.94%; in data set [2] it was 98.26%.
For `C[C@@H]1O[C@@H](O[C@H]2[C@H](Oc3cc(O)c4c(c3)O[C@H](c3ccc(O)cc3)CC4=O)O[C@H](CO)[C@@H](O)[C@@H]2O)[C@H](O)[C@H](O)[C@H]1O` [NARINGIN], the residual activity in data set [1] is 100.1%; in data set [2] it was 137.8%.
Turning to `Nc1nc(N)c2nc(CNc3ccc(C(=O)N[C@@H](CCC(=O)O)C(=O)O)cc3)cnc2n1` [AMINOPTERIN], the residual activity is reported as 89.56% in data set [1] and 124.5% in data set [2].
For the compound `CC1(C)C2CC(=O)O[C@@]3(C)C4=CC(=O)O[C@@H](c5ccoc5)[C@]4(C)CCC3[C@@]2(C)C=C[C@H]1O` (stereo partly drawn) [DEOXYANDIROBIN LACTONE], the residual activity in data set [1] amounted to 29.53%; in data set [2], 53.06%.
In the case of `O=C1C[C@@H](c2ccc(O)cc2)Oc2cc(O)cc(O)c21` [NARINGENIN], the residual activity in data set [1] is given as 96.26%; in data set [2] it was 95.55%.
